# Laboratory results from article PMC5940854, “Nitrothiophene carboxamides, a novel narrow spectrum antibacterial series: Mechanism of action and Efficacy” (Scientific Reports, 2018).
# Columns and labels:
# [1] = system: E. coli clinical isolates; experiment: MIC on panel of E. coli clinical isolates; type: cell-based
# [2] = system: wild-type E. coli CGSC#7636 (BW25113); experiment: MIC, wild-type E. coli; type: cell-based; settings: Escherichia coli, BW25113, E. coli WT BW25113; read-out: MIC WT
# Procedure: The inoculum used for all the experiments is derived from a single seed lot that is maintained as glycerol stocks at −80 °C and are sub cultured on LB plate for isolated colonies. Single colony of each strain is grown in M9 medium. All test compound stocks and dilutions are prepared in DMSO. Serial two-fold dilutions of compounds are prepared separately, with the concentrations ranging from 2 mg/mL to 0.015 mg/mL. To 150 µl (3–7 × 10^5 CFU/ml) of bacterial culture in 96 well microtitre plates, 3 μL compound from each of the dilutions is added to respective wells to obtain final concentrations ranging from 40 µg/mL to 0.3 µg/mL of the test compounds. Media control, culture control and appropriate reference drug controls are included. […] Growth is monitored by checking absorbance at 600 nm (A600). […] The samples from MIC and above concentrations are plated for MBC (Minimum Bactericidal Concentration). The samples are diluted 1:10 and plated on LB agar plates. […] The killing kinetics is determined by enumerating survivors at various time points following compound exposure. E. coli cells (~10^7 CFU/ml; A600 of 0.1) are treated with various concentrations (40 µg/mL to 0.3 µg/mL) of compounds in a 96-well microtitre plate. At various time intervals (0 to 8 h), 30 μl volumes of treated cultures are serially diluted and plated on LB agar plates. […] Data is expressed as the log10 CFU for each drug treatment.
# [3] = biological target: T1, NfsB (Escherichia coli, UniProt P38489); experiment: Nitroreductase activity assay, NfsB; type: biochemical, E. coli; settings: 20 μM compound, 40 μM NADH, 70 nM NfsB; slope of initial velocity
# T1 construct: His-tag; made in house; host or cells: E. coli BL21(DE3), pET28a (pET-nfsB)
# Procedure: Enzyme reducing each of the substrates are measured by monitoring the concomitant oxidation of NADPH by NfsA and NADH by NfsB in a fluorescence based assay. The reduction in fluorescence due to the NADH oxidation (excitation 350 nm, emission 460 nm) and NADPH oxidation (excitation 340 nm, emission 485 nm) is recorded using a TECAN Infinite M200Pro spectrophotometer, in half area solid black microtiter plates. This change in fluorescence directly corelates to the reduction of the nitro-compounds in the reaction. The NfsA assays is performed by initiating the reactions with 40 μM NADPH and 10 nM NfsA in 50 mM Tris-HCl (pH 7.4), 5 mM EDTA against 20 μM substrate (5 μl of compounds/substrate dissolved in 100% DMSO) in a total reaction volume of 100 μl at 25 °C. Similarly, the NfsB assay is also performed by initiating the reactions with 40 μM NADH and 70 nM NfsB in 50 mM Tris-HCl (pH 7.4), 5 mM EDTA against 20 μM substrate in a total reaction volume of 100 μl. […] All reactions are performed in replicates of two or more and the fluorescence measurements are made at 10 second intervals for 5–10 minutes.
# Low solubility of the compounds/substrates under the NfsA and NfsB assay conditions precluded determination of their Km. […] The relative fluorescence units (RFU) obtained due to NADPH (excitation 340 nm, emission 485 nm) or NADH (excitation 350 nm, emission 460 nm) oxidation of the first 90 sec reaction is used to compute the slopes using linear regression analysis on GraphPad Prism. Appropriate blank reactions are included to account for background fluorescence/quenching from each of the components such as DMSO, the compound itself and auto-oxidation of NADPH or NADH. Activity of NfsB with a known substrate such as nitrofurantoin is used as a benchmark to plot the relative activities with all the test compounds.
# T1 sequence (P38489 whole entry): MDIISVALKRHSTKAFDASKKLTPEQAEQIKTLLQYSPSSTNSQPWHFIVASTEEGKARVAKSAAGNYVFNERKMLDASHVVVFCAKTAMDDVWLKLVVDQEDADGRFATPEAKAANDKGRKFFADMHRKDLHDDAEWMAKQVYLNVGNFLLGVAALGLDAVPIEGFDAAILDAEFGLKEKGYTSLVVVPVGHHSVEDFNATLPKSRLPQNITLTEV
smiles,measurement,setting,value
"O=C1CN(/N=C/c2ccc([N+](=O)[O-])o2)C(=O)N1 [nitrofurantoin, reference compound]",MIC Range,[1]; 75 E.coli clinical isolates,5 to 160 mg/L
same,MIC50,"[1]; Escherichia coli, 75 E.coli clinical isolates, 50% clinical isolates",20 mg/L
same,MIC90,"[1]; Escherichia coli, 75 E.coli clinical isolates, 90% clinical isolates",80 mg/L
same,MIC,[1]; strain SEC001,80 mg/L
same,MIC,[1]; strain SEC002,20 mg/L
same,MIC,[1]; strain SEC003,40 mg/L
same,MIC,[1]; strain SEC004,80 mg/L
same,MIC,[1]; strain SEC005,40 mg/L
same,MIC,[1]; strain SEC006,20 mg/L
same,MIC,[1]; strain SEC007,40 mg/L
same,MIC,[1]; strain SEC008,80 mg/L
same,MIC,[1]; strain SEC011,40 mg/L
same,MIC,[1]; strain SEC012,20 mg/L
same,MIC,[1]; strain SEC013,80 mg/L
same,MIC,[1]; strain SEC014,20 mg/L
same,MIC,[1]; strain SEC015,20 mg/L
same,MIC,[1]; strain SEC016,40 mg/L
same,MIC,[1]; strain SEC017,20 mg/L
same,MIC,[1]; strain SEC018,20 mg/L
same,MIC,[1]; strain SEC019,40 mg/L
same,MIC,[1]; strain SEC020,160 mg/L
same,MIC,[1]; strain SEC021,20 mg/L
same,MIC,[1]; strain SEC022,20 mg/L
same,MIC,[1]; strain SEC023,80 mg/L
same,MIC,[1]; strain SEC024,20 mg/L
same,MIC,[1]; strain SEC025,40 mg/L
same,MIC,[1]; strain SEC026,20 mg/L
same,MIC,[1]; strain SEC028,5 mg/L
same,MIC,[1]; strain SEC029,20 mg/L
same,MIC,[1]; strain SEC031,20 mg/L
same,MIC,[1]; strain SEC032,20 mg/L
same,MIC,[1]; strain SEC033,20 mg/L
same,MIC,[1]; strain SEC034,20 mg/L
same,MIC,[1]; strain SEC035,40 mg/L
same,MIC,[1]; strain SEC036,40 mg/L
same,MIC,[1]; strain SEC037,20 mg/L
same,MIC,[1]; strain SEC038,20 mg/L
same,MIC,[1]; strain SEC039,20 mg/L
same,MIC,[1]; strain SEC040,40 mg/L
same,MIC,[1]; strain SEC041,20 mg/L
same,MIC,[1]; strain SEC042,10 mg/L
same,MIC,[1]; strain SEC043,20 mg/L
same,MIC,[1]; strain SEC044,80 mg/L
same,MIC,[1]; strain SEC045,20 mg/L
same,MIC,[1]; strain SEC046,20 mg/L
same,MIC,[1]; strain SEC047,40 mg/L
same,MIC,[1]; strain SEC048,40 mg/L
same,MIC,[1]; strain SEC049,40 mg/L
same,MIC,[1]; strain SEC050,20 mg/L
same,MIC,[1]; strain SEC051,40 mg/L
same,MIC,[1]; strain SEC052,160 mg/L
same,MIC,[1]; strain SEC053,40 mg/L
same,MIC,[1]; strain SEC054,20 mg/L
same,MIC,[1]; strain SEC055,20 mg/L
same,MIC,[1]; strain SEC057,40 mg/L
same,MIC,[1]; strain SEC058,80 mg/L
same,MIC,[1]; strain SEC059,20 mg/L
same,MIC,[1]; strain SEC060,20 mg/L
same,MIC,[1]; strain SEC061,40 mg/L
same,MIC,[1]; strain SEC062,20 mg/L
same,MIC,[1]; strain SEC063,40 mg/L
same,MIC,[1]; strain SEC064,40 mg/L
same,MIC,[1]; strain SEC065,20 mg/L
same,MIC,[1]; strain SEC067,20 mg/L
same,MIC,[1]; strain SEC068,20 mg/L
same,MIC,[1]; strain SEC069,20 mg/L
same,MIC,[1]; strain SEC070,20 mg/L
same,MIC,[1]; strain SEC071,20 mg/L
same,MIC,[1]; strain SEC072,20 mg/L
same,MIC,[1]; strain SEC073,40 mg/L
same,MIC,[1]; strain SEC074,40 mg/L
same,MIC,[1]; strain SEC075,10 mg/L
same,MIC,[1]; strain SEC076,20 mg/L
same,MIC,[1]; strain SEC077,80 mg/L
same,MIC,[1]; strain SEC078,80 mg/L
same,MIC,[1]; strain SEC079,20 mg/L
same,MIC,[1]; strain SEC080,40 mg/L
same,MIC,[2],2.5 mg/L
same,NfsB activity (rate of compound conversion),[3],3.50 µM/min
